We go through two compounds from ChEMBL document CHEMBL1159348, “S(R)-podolactone D, a new sulfoxide-containing norditerpene dilactone from Podocarpus macrophyllus var. maki” (J Nat Prod, 2003).

In this assay the test system is P388. Briefly: Cytotoxicity against mouse P388 cells. The class given is functional, cell-based.

Converted amounts (≈) assume the structure as drawn.

`C[S@+]([O-])C[C@](C)(O)[C@H]1OC(=O)C=C2[C@@]13O[C@@H]3[C@H]1OC(=O)[C@@]3(C)C=CC[C@@]2(C)[C@@H]13` (stereo in doubt; 2): the IC50 turned out to be 0.23 µg/mL (≈ 0.563 µM).
The same measure for `C[S@+]([O-])C[C@](C)(O)[C@H]1OC(=O)C=C2[C@@]13O[C@@H]3[C@H]1OC(=O)[C@@]3(C)C=CC[C@@]2(C)[C@@H]13` (stereo in doubt; 1): 0.52 µg/mL (≈ 1.27 µM).
